# Data as given in ChEMBL document CHEMBL6178013, “Ferroptosis of Cancer Cells via Tubulin Degradation and Mitochondrial Dysfunction: A Novel Mechanism of Anticancer Effect for Small-Molecule Anion Transporters” (J Med Chem, 2025).
# The source made the active and inactive calls. The calls are words filed in the database; no cut-off is given here.
# What was measured:
# Chloride [1] = assay: Binding affinity to chloride anions assessed as anionophoric activity in egg-yolk L-alpha-phosphatidylcholine liposome model measured per lipid by pyranine-based fluorescent assay
# Chloride [2] = assay: Binding affinity to chloride anions using tetrabutylammonium chloride salt assessed as association constant by 1H NMR spectroscopy
# Chloride [3] = assay: Binding affinity to chloride anions assessed as chloride efflux in egg-yolk L-alpha-phosphatidylcholine liposome model measured per lipid in presence of intravesicular NaCl/extravesicular NaNO3 by chloride ion selective electrode technique
# Liposome = assay: Disruption of egg-yolk L-alpha-phosphatidylcholine liposome model membrane assessed as calcein leakage by fluorescence based assay; type: subcellular
# Chloride [4] = assay: Binding affinity to chloride anions assessed as transport of chloride anions across bulky nitrobenzene membrane in U-shaped tube harboring NaCl in donor phase and NaNO3 in receiving phase at 1 mM measured for 12 hrs by chloride ion selective electrode technique
# Chloride [5] = assay: Binding affinity to chloride anions in human HeLa cells assessed as decrease in orange fluorescence in cytoplasm at 5 uM incubated for 6 hrs by AO staining based analysis relative to control; type: cell-based; design: scale not given: the % may be the effect or the level left
# Chloride [6] = assay: Binding affinity to chloride anions in human HeLa cells assessed as increase in green fluorescence in cytoplasm at 5 uM incubated for 6 hrs by AO staining based analysis; type: cell-based
# HeLa [7] = assay: Cytotoxicity against human HeLa cells incubated for 48 hrs by MTT assay; type: functional, cell-based
# A549 = assay: Cytotoxicity against human A549 cells incubated for 48 hrs by MTT assay; type: functional, cell-based; conditions: A549, 48 h
# MCF7 = assay: Cytotoxicity against human MCF7 cells incubated for 48 hrs by MTT assay; type: functional, cell-based; conditions: MCF7, 48 h
# HepG2 = assay: Cytotoxicity against human HepG2 cells incubated for 48 hrs by MTT assay; type: functional, cell-based; conditions: HepG2, 48 h
# Chloride [8] = assay: Binding affinity to chloride anions assessed as fold increase in anionophoric activity in egg-yolk L-alpha-phosphatidylcholine liposome model measured per lipid by pyranine-based fluorescent assay relative to m-Bimbe
# Chloride [9] = assay: Binding affinity to chloride anions in human HeLa cells assessed as decrease in red fluorescence in cytoplasm at 5 uM incubated for 1.5 hrs by MR-(RR)2 staining based analysis; type: cell-based
# Chloride [10] = assay: Binding affinity to chloride anions in human HeLa cells assessed as chloride influx up to 5 uM incubated for 2 hrs by MQAE staining based analysis; type: cell-based
# HeLa [11] = assay: Antitumor activity against human HeLa cells xenografted in male Balb/C nude mouse assessed as average tumor size at 2 mg/kg, ip administered on every 2 days measured after 18 days (reference value: 1995.1 mm3); type: functional; conditions: time 18 day
# [12] = Toxicity in male Balb/C nude mouse xenografted with human HeLa cells assessed as body weight change at […], ip administered on every 2 days measured after 18 days; type: organism-based; conditions: in vivo, 432 h, time 18 day
SMILES,EC50 (Chloride [1]),Ka (Chloride [2]),EC50 (Chloride [3]),Activity (Liposome),Activity (Chloride [4]),fold change (FC) (Chloride [8]),Activity (Chloride [5]),Activity (Chloride [6]),IC50 (HeLa [7]),IC50 (A549),IC50 (MCF7),IC50 (HepG2),Activity (Chloride [9]),Activity (Chloride [10]),Activity (HeLa [11]),Activity [12]
FC(F)(F)c1ccc2nc(-c3cccc(-c4nc5ccc(C(F)(F)F)cc5[nH]4)c3)[nH]c2c1,9.67 mol%,3.51 10^3/M,> 10 mol%,inactive,Active,–,Not active; Only Slight Activity Was Observed,Not active; Only Slight Activity Was Observed,12.3 µM,12.8 µM,10.5 µM,10.6 µM,–,–,–,–
FC(F)(F)c1cc(C(F)(F)F)c2nc(-c3cccc(-c4nc5c(C(F)(F)F)cc(C(F)(F)F)cc5[nH]4)c3)[nH]c2c1,0.27 mol%,2.93 10^4/M,1.92 mol%,inactive,Active,35.8,Active; The Result Indicates That Compound Basify Acidic Organelles,Active; The Result Indicates That Compound Basify Acidic Organelles,2.84 µM,1.49 µM,2.4 µM,8.3 µM,Active; The Result Reveals That Compound Can Alkalize Lysosomes,Active,–,–
COc1cccc2c1C(=O)c1c(O)c3c(c(O)c1C2=O)C[C@@](O)(C(=O)CO)C[C@@H]3O[C@H]1C[C@H](N)[C@H](O)[C@H](C)O1 [DOXORUBICIN],–,–,–,–,–,–,–,–,0.11 µM,–,0.26 µM,2.3 µM,–,–,1093.2 mm3,Toxic
Fc1cc(-c2nc3ccc(C(F)(F)F)cc3[nH]2)cc(-c2nc3ccc(C(F)(F)F)cc3[nH]2)c1,1.54 10^-2mol%,1.17 10^4/M,0.94 mol%,inactive,Active,6.28 10^2No_unit,Active; The Result Indicates That Compound Basify Acidic Organelles,Active; The Result Indicates That Compound Basify Acidic Organelles,3.53 µM,4.53 µM,3.17 µM,1.67 µM,–,–,–,–
O=[N+]([O-])c1cc(-c2nc3c(C(F)(F)F)cc(C(F)(F)F)cc3[nH]2)cc(-c2nc3c(C(F)(F)F)cc(C(F)(F)F)cc3[nH]2)c1,5.34 10^-3mol%,6.58 10^3/M,0.02 mol%,inactive,Active,1.81 10^3No_unit,100%,Active; The Result Indicates That Compound Basify Acidic Organelles,9.67 µM,10.5 µM,10.8 µM,16.5 µM,Active; The Result Reveals That Compound Can Alkalize Lysosomes,Active,–,–
c1cc(-c2nc3ccccc3[nH]2)cc(-c2nc3ccccc3[nH]2)c1,2.76 10^-3mol%,1.45 10^4/M,0.06 mol%,–,–,3.5 10^3No_unit,–,–,–,–,–,–,–,–,–,–

# More lines, main results first:
EC50 (Chloride [1]),Ka (Chloride [2]),EC50 (Chloride [3]),Activity (Liposome),Activity (Chloride [4]),fold change (FC) (Chloride [8]),SMILES,Activity (Chloride [5]),Activity (Chloride [6]),IC50 (HeLa [7]),IC50 (A549),IC50 (MCF7),IC50 (HepG2),Activity (Chloride [9]),Activity (Chloride [10]),Activity (HeLa [11]),Activity [12]
0.64 mol%,6.96 10^3/M,4.11 mol%,inactive,Active,15.1,Fc1cc2nc(-c3cccc(-c4nc5cc(F)c(C(F)(F)F)cc5[nH]4)c3)[nH]c2cc1C(F)(F)F,Active; The Result Indicates That Compound Basify Acidic Organelles,Active; The Result Indicates That Compound Basify Acidic Organelles,18.3 µM,28.8 µM,11.2 µM,11.2 µM,–,–,–,–
2.37 10^-2mol%,4.95 10^3/M,0.11 mol%,inactive,Active,4.08 10^2No_unit,O=[N+]([O-])c1cc(-c2nc3cc(F)c(C(F)(F)F)cc3[nH]2)cc(-c2nc3cc(F)c(C(F)(F)F)cc3[nH]2)c1,100%,Active; The Result Indicates That Compound Basify Acidic Organelles,4.23 µM,10.2 µM,3.4 µM,2.2 µM,Active; The Result Reveals That Compound Can Alkalize Lysosomes,Active,–,–
2 10^-3mol%,5.25 10^3/M,0.3 mol%,inactive,Active,4.84 10^3No_unit,O=[N+]([O-])c1cc(-c2nc3ccc(C(F)(F)F)cc3[nH]2)cc(-c2nc3ccc(C(F)(F)F)cc3[nH]2)c1,Active; The Result Indicates That Compound Basify Acidic Organelles,Active; The Result Indicates That Compound Basify Acidic Organelles,8.33 µM,7.78 µM,8.6 µM,6.8 µM,Active; The Result Reveals That Compound Can Alkalize Lysosomes,Active,–,–
3.79 10^-2mol%,1.01 10^3/M,0.2 mol%,inactive,Active,2.55 10^2No_unit,Fc1cc(-c2nc3cc(F)c(C(F)(F)F)cc3[nH]2)cc(-c2nc3cc(F)c(C(F)(F)F)cc3[nH]2)c1,Active; The Result Indicates That Compound Basify Acidic Organelles,Active; The Result Indicates That Compound Basify Acidic Organelles,3.9 µM,3.97 µM,3.33 µM,3.13 µM,–,–,–,–
